Data reported in patent US10633407B2, “14-membered ketolides and methods of their preparation and use” (President and Fellows of Harvard College, priority 2014, dated 2020).
Converted amounts (≈) assume the structure as drawn.

How the values were obtained:
Assay in all cases: CLSI broth dilution MIC determination
Format in all cases: cell-based
A. baumannii ATCC 19606 = conditions: Acinetobacter baumannii, ATCC19606; A. baumannii ATCC 19606 (MP-15); read-out: MIC
P. aeruginosa ATCC 27853 = conditions: Pseudomonas aeruginosa, ATCC27853; P. aeruginosa ATCC 27853 (MP-3); read-out: MIC
P. aeruginosa MP-7 PAO1 = conditions: Pseudomonas aeruginosa, read-out: MIC
E. coli MP-541 clinical = conditions: Escherichia coli, MP541CLINICAL, read-out: MIC
From the text: (§1) MIC data was collected for the novel macrolides that this platform has produced against over 21 unique strains of B. subtilis, E. coli, S. aureus, S. pneumoniae, and H. influenzae, including several multidrug-resistant strains, with a special focus on macrolide resistant mechanisms (vide supra). Azithromycin (Azithro) and Solithromycin (Solithro) were included as a control macrolides in many cases. CLSI standard procedures for broth dilution MIC determination were used. […] These genotypes can be constitutive or inducible.

S. aureus ATCC 29213 = conditions: Staphylococcus aureus, ATCC29213; S. aureus ATCC 29213 (MP-12); read-out: MIC
From the text: as §1

E. coli ATCC 25922 = conditions: Escherichia coli, ATCC25922, E. coli ATCC 25922 (MP-4); read-out: MIC
From the text: as §1

[1] = tested on: E. coli MP-9 ATCC25922:tolC; conditions: Escherichia coli, ATCC25922
From the text: as §1

[2] = tested on: S. aureus MP-17 ATCCBAA-977 (BAA 977 iErm); conditions: Staphylococcus aureus; S. aureus MP-17, ATCCBAA-977, iErm; read-out: MIC
From the text: as §1

S. aureus MRSA: USA300 = conditions: Staphylococcus aureus; S. aureus MRSA: USA300 (MP-549, msr(a)); read-out: MIC
From the text: as §1

[3] = tested on: S. aureus (MRSA) MP-513 ST-228 cErm (Clinical-cErm); conditions: Staphylococcus aureus, read-out: MIC
From the text: as §1

[4] = tested on: E. coli MP-532 clinical-cErmB; conditions: Escherichia coli
From the text: as §1

[5] = tested on: K. pneumoniae MP-546 Clinical-MDR; conditions: Klebsiella pneumoniae, read-out: MIC
[6] = tested on: A. baumannii MP-577 Clinical-AZT low; conditions: Acinetobacter baumannii, read-out: MIC
K. pneumoniae ATCC 10031 = conditions: Klebsiella pneumoniae, ATCC10031, K. pneumoniae ATCC 10031 (MP-14); read-out: MIC
[7] = tested on: P. aeruginosa MP-8 PAO1:mex (mex-oprM-deletion); conditions: Pseudomonas aeruginosa, PAO1
[8] = tested on: A. baumannii MP-576 Clinical-MDR; conditions: Acinetobacter baumannii, read-out: MIC
[9] = tested on: K. pneumoniae MP-548 clinical; conditions: Klebsiella pneumoniae, MP548CLINICAL, read-out: MIC

Row | SMILES | MIC (A. baumannii ATCC 19606) [µg/mL] | MIC (P. aeruginosa ATCC 27853) [µg/mL] | MIC (P. aeruginosa MP-7 PAO1) [µg/mL] | MIC (E. coli MP-541 clinical) [µg/mL] | MIC (S. aureus ATCC 29213) [µg/mL] | MIC (E. coli ATCC 25922) [µg/mL] | MIC [1] [µg/mL] | MIC [2] [µg/mL] | MIC (S. aureus MRSA: USA300) [µg/mL] | MIC [3] [µg/mL] | MIC [4] [µg/mL] | MIC [5] [µg/mL] | MIC [6] [µg/mL] | MIC (K. pneumoniae ATCC 10031) [µg/mL] | MIC [7] [µg/mL] | MIC [8] [µg/mL] | MIC [9] [µg/mL]
1 | CC[C@H]1OC(=O)[C@@](C)(F)C(=O)[C@H](C)[C@@H](O[C@@H]2OC(C)CC(N(C)C)C2O)[C@](C)(OC)C[C@@H](C)C(=O)[C@H](C)[C@H]2N(CC#CCn3cc(-c4ccnc(N)n4)nn3)C(=O)O[C@]12C (stereo partly drawn) [FSM-22748] | 16 (≈ 19 µM) | 64 (≈ 75.9 µM) | 64 (≈ 75.9 µM) | 16 (≈ 19 µM) | 0.25 (≈ 0.297 µM) | 16 (≈ 19 µM) | 4 (≈ 4.75 µM) | 0.25 (≈ 0.297 µM) | 0.25 (≈ 0.297 µM) | > 64 | > 64 | > 64 | 32 (≈ 38 µM) | 8 (≈ 9.49 µM) | 16 (≈ 19 µM) | > 64 | 64 (≈ 75.9 µM)
2 | CC[C@H]1OC(=O)[C@@](C)(F)C(=O)[C@H](C)[C@@H](O[C@@H]2OC(C)CC(N(C)C)C2O)[C@](C)(OC)C[C@@H](C)C(=O)[C@H](C)[C@H]2N(CC#CCn3cc(-c4nccc(N)n4)nn3)C(=O)O[C@]12C (stereo partly drawn) [FSM-22749] | 32 (≈ 38 µM) | > 64 | > 64 | 64 (≈ 75.9 µM) | 2 (≈ 2.37 µM) | 64 (≈ 75.9 µM) | 8 (≈ 9.49 µM) | 2 (≈ 2.37 µM) | 2 (≈ 2.37 µM) | > 64 | > 64 | > 64 | > 64 | 16 (≈ 19 µM) | 16 (≈ 19 µM) | > 64 | > 64
3 | CC[C@H]1OC(=O)[C@@](C)(F)C(=O)[C@H](C)[C@@H](O[C@@H]2OC(C)CC(N(C)C)C2O)[C@](C)(OC)C[C@@H](C)C(=O)[C@H](C)[C@H]2N(CC#CCn3cc(-c4cc(F)nc(F)n4)nn3)C(=O)O[C@]12C (stereo partly drawn) [FSM-22750] | > 64 | > 64 | > 64 | > 64 | 4 (≈ 4.63 µM) | > 64 | > 64 | 8 (≈ 9.26 µM) | 8 (≈ 9.26 µM) | > 64 | > 64 | > 64 | > 64 | > 64 | > 64 | > 64 | > 64
4 | CC[C@H]1OC(=O)[C@@](C)(F)C(=O)[C@H](C)[C@@H](O[C@@H]2OC(C)CC(N(C)C)C2O)[C@](C)(OC)C[C@@H](C)C(=O)[C@H](C)[C@H]2N(CC#CCn3cc(-c4cc(OC)ccn4)nn3)C(=O)O[C@]12C (stereo partly drawn) [FSM-100576] | 16 (≈ 18.7 µM) | > 32 | > 32 | 32 (≈ 37.3 µM) | 0.125 (≈ 0.146 µM) | 32 (≈ 37.3 µM) | 2 (≈ 2.33 µM) | 0.125 (≈ 0.146 µM) | 0.25 (≈ 0.292 µM) | > 32 | > 32 | > 32 | > 32 | 4 (≈ 4.67 µM) | 8 (≈ 9.33 µM) | > 32 | > 32
5 | CC[C@H]1OC(=O)[C@@](C)(F)C(=O)[C@H](C)[C@@H](O[C@@H]2OC(C)CC(N(C)C)C2O)[C@](C)(OC)C[C@@H](C)C(=O)[C@H](C)[C@H]2N(CC#CCn3cc(-c4cc(N)ccn4)nn3)C(=O)O[C@]12C (stereo partly drawn) [FSM-100593] | 8 (≈ 9.5 µM) | 32 (≈ 38 µM) | 32 (≈ 38 µM) | 8 (≈ 9.5 µM) | 0.125 (≈ 0.148 µM) | 4 (≈ 4.75 µM) | 0.5 (≈ 0.594 µM) | 0.125 (≈ 0.148 µM) | 0.25 (≈ 0.297 µM) | 64 (≈ 76 µM) | > 64 | 32 (≈ 38 µM) | 8 (≈ 9.5 µM) | 1 (≈ 1.19 µM) | 2 (≈ 2.38 µM) | > 64 | 16 (≈ 19 µM)
6 | CC[C@H]1OC(=O)[C@@](C)(F)C(=O)[C@H](C)[C@@H](O[C@@H]2OC(C)CC(N(C)C)C2O)[C@](C)(OC)C[C@@H](C)C(=O)[C@H](C)[C@H]2N(CC#CCn3cc(-c4cc(=O)cc[nH]4)nn3)C(=O)O[C@]12C (stereo partly drawn) [FSM-100597] | 64 (≈ 75.9 µM) | > 64 | > 64 | 32 (≈ 38 µM) | 1 (≈ 1.19 µM) | 64 (≈ 75.9 µM) | 4 (≈ 4.75 µM) | 1 (≈ 1.19 µM) | 2 (≈ 2.37 µM) | > 64 | > 64 | > 64 | > 64 | 8 (≈ 9.49 µM) | 16 (≈ 19 µM) | > 64 | > 64
